This note sets out measurements from patent EP1900728A1 (Genecare Research Institute Co., Ltd, priority 2005, dated 2006).

The test system of assay [1] is ICAM-1 expression in HT-29 cells. The assay can be described thus: Measurement of ICAM-1 expressing activity (TNFα-induced ICAM-1 expression, cell ELISA). The format is cell-based. As to conditions: Homo sapiens, Table 6, cell activity inhibition test by method (3), read-out: EVALUATION (IC50 class, inhibition of cell activity). As to the method:
Method 2: Measurement of ICAM-1 expressing activity
2.0 x 10^4 HT-29 cells (ATCC) were plated onto a 96-well plate, and the cells were cultured for 48 hours using a McCoy' 5A medium (GIBCO) containing 10% inactivated fetal calf serum. The culture medium was removed, a culture medium containing a compound to be evaluated (final DMSO concentration of 0.5%) was added, and this was incubated at 37°C for 30 minutes. Thirty ng/mL of human TNFα (GIBCO) was added, and this was incubated at 37°C for 4 hours. After washing once with a washing solution (PBS containing 0.05% Tween 20), ice-cooled methanol was added, and this was left on ice for 10 minutes and then fixed. After removing methanol, PBS containing 1% BSA was added, and blocking was performed by letting this stand at room temperature for 30 minutes. Anti-ICAM-1 antibody (Santa Cruz Biotechnology) was added, and this was left to stand at room temperature for 1 hour. After washing with the washing solution, POD-labeled secondary antibody was added, and this was left to stand at room temperature for 30 minutes. This was washed, 100 µL of 100 mM citric acid buffer (pH4.2) containing 1 mM TMBZ and 0.03% H2O2 was added, and this was reacted at room temperature for 15 minutes. The reaction was terminated with 100 µL of 2 N H2SO4, and the absorbance at 450 nm was measured using ARVO-HTS (Perkin Elmer).
When cells are stimulated with TNFα, IκBα is degraded after ubiquitination resulting in the activation of NFκB and the promotion of the expression of adhesion factor ICAM-1. Therefore, the suppression of ICAM-1 expression described above serves as an indicator to determine the effectiveness of the compound in the cells.
(An ELISA detects its analyte on a solid surface through an enzyme-linked reagent.)

Assay [2] has as its target T1, IκBα ubiquitinating enzyme (SCF complex: ROC1, Cullin1, Skp1, His-TrCP1; with E1, UbcH5b) (Homo sapiens, UniProt P62877+P63208+Q13616+Q9Y297).
T1 construct: His (polyhistidine); made in house; host or cells: insect cells (baculovirus) for the SCF complex and His-E1; E. coli for His-UBCH5b
The assay can be described thus: Measurement of ubiquitinating enzyme activity (IκBα ubiquitination, time-resolved fluorescence with Eu(K)-labeled ubiquitin and XL665-labeled anti-GST antibody). It counts as biochemical. The essentials:
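Human SCF complex with E1 and UbcH5b ubiquitinated GST-IκBα pre-phosphorylated by IKKβ (2 mM ATP, pH 7.4, 1 h, RT), with Eu(K)-ubiquitin, 30 min RT. Stopped with EDTA, XL665 anti-GST added for 2 h; 665/620 nm TR-FRET ratio. % inhibition versus no-compound control and no-SCF blank gave IC50.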

Setting [3] is: enzyme activity inhibition test, method (1), Table 5, read-out: EVALUATION

Molecules are shown by their SMILES. Read-outs that look alike come from different tables or passages of the source. Bounds are passed on as bounds.

T1 sequence (Q9Y297 whole entry): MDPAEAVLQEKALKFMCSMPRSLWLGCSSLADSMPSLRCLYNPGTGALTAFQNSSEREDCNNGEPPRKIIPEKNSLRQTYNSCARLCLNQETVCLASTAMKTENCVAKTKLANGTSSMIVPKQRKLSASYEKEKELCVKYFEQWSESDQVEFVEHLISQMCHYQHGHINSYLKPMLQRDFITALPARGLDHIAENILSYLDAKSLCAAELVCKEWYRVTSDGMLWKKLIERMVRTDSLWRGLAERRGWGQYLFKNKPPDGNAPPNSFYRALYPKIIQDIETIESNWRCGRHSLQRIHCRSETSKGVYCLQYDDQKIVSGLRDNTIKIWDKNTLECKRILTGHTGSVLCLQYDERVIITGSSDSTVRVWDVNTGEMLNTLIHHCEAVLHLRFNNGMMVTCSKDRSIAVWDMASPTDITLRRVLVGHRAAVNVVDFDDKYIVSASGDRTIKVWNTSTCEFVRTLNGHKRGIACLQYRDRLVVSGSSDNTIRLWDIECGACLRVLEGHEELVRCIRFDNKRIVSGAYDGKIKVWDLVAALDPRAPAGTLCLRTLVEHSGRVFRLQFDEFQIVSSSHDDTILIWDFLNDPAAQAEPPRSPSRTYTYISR
T1 sequence (Q13616 whole entry): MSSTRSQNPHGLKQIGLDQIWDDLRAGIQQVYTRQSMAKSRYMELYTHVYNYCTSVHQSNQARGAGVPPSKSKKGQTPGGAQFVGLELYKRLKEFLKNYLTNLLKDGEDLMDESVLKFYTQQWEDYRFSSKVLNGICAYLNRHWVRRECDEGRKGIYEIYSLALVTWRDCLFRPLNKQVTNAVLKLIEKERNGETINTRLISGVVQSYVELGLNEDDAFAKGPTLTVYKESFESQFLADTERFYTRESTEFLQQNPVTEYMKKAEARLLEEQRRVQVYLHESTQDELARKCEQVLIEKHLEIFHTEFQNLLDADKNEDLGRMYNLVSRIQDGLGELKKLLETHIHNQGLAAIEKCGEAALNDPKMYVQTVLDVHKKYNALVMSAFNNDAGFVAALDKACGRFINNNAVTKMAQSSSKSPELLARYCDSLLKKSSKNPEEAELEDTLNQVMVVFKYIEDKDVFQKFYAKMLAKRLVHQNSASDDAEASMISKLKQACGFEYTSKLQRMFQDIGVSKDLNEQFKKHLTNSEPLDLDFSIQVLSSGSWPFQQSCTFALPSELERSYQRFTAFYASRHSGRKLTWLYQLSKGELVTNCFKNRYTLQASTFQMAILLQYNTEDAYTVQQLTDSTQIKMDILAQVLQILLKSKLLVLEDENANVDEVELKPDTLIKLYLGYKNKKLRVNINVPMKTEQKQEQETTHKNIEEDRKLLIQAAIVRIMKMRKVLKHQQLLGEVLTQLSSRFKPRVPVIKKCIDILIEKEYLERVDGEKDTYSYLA
T1 sequence (P63208 whole entry): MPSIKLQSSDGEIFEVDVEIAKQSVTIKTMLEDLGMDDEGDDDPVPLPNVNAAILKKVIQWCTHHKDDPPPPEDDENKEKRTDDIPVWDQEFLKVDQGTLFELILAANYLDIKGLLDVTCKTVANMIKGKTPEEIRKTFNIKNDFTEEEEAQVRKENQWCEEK
T1 sequence (P62877 whole entry): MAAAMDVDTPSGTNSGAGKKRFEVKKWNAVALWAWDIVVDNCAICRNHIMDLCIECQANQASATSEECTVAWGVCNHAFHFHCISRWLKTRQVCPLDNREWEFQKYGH

With `CC1=NN(c2ccc(S(N)(=O)=O)cc2)C(=O)/C1=C\c1ccc(N2CCCCC2)cc1` [Compound 126], the IC50 in assay [1] and in assay [2] (setting [3]) was 10 to 20 µM each time.
For the molecule `Cn1cc(-c2ccc(/C=C3\C(=O)N(Cc4cccc(O)c4)N=C3c3ccoc3)o2)cn1` [Compound 188], the IC50 is under 40 µM in assay [1] and 10 to 20 µM in assay [2] (setting [3]).
As to `CC1=NN(c2ccc(C(=O)O)cc2)C(=O)C1=Cc1ccc2[nH]ccc2c1` [Compound 349], the IC50 was under 40 µM in assay [1] and under 10 µM in assay [2].
With `COc1cccc(-c2ccc(/C=C3\C(=O)N(c4cccc(C(=O)O)c4)N=C3C)o2)c1` [Compound 503], the figures for the IC50 in assay [1] and in assay [2] (setting [3]) were under 10 µM and 10 to 20 µM, respectively.
In the same order, the values of `CC1=NN(c2ccc(C(=O)O)cc2)C(=O)/C1=C\c1ccc(NC(=O)c2ccccc2)cc1` [Compound 544] are under 40 µM and under 10 µM.
Regarding `CCCCC1=NN(c2ccc(C(=O)O)cc2)C(=O)/C1=C\c1ccc(N2CCC(CO)CC2)cc1` [Compound 443], the IC50 in assay [1] was 10 to 20 µM; in assay [2] (setting [3]), under 10 µM.
Regarding `CC1=NN(c2cccc(C(=O)O)c2)C(=O)/C1=C\c1ccc2c(ccn2CC2CC2)c1` [Compound 499], the IC50 in assay [1] was under 40 µM; in assay [2] (setting [3]) it was under 10 µM.
Turning to `COCC1=NN(c2ccc(C(=O)O)cc2)C(=O)/C1=C\c1ccc(-n2ccnc2)cc1` [Compound 238], the IC50 in assay [1] is under 40 µM; in assay [2] (setting [3]), under 10 µM.
In the same order, the values of `O=C(O)c1ccc(N2N=C(c3ccccn3)/C(=C/c3ccc(N4CCCC4)cc3)C2=O)cc1` [Compound 291] are 10 to 20 µM and 10 to 20 µM.
As for `COC(=O)N1CCN(c2ccc(C=C3C(=O)N(c4ccc(C(=O)O)cc4)N=C3C)cc2)CC1` [Compound 254], the IC50 is under 40 µM in assay [1] and under 10 µM in assay [2].
With `CC1=NN(c2ccc(S(N)(=O)=O)cc2)C(=O)C1=Cc1ccc(NC(=O)c2ccc(F)cc2)cc1` [Compound 226], the IC50 in assay [1] was 10 to 20 µM; in assay [2] it was under 10 µM.
In the same order, the values of `CC1=NN(c2ccc(S(N)(=O)=O)cc2)C(=O)C1=Cc1ccc(OCC(=O)Nc2ccccc2)cc1` [Compound 210] are 10 to 20 µM and under 10 µM.
Consider `O=C(O)c1ccc(N2N=C(Cc3ccccc3)/C(=C/c3ccc4c(c3)OCCO4)C2=O)cc1` [Compound 272], for which the IC50 in assay [1] is under 10 µM; in assay [2] (setting [3]) it was 10 to 20 µM.
In the same order, the values of `COC(=O)N1CCN(c2ccc(/C=C3\C(=O)N(c4ccc(C(=O)O)cc4)N=C3Cc3ccccc3)cc2)CC1` [Compound 266] are 10 to 20 µM and under 10 µM.
In the same order, the values of `O=C(O)c1ccc(N2N=C(c3ccoc3)/C(=C/c3ccc(N4CCCC4)cc3)C2=O)cc1` [Compound 248] are 10 to 20 µM and under 10 µM.
Regarding `CCCCC1=NN(c2ccc(C(=O)O)cc2)C(=O)/C1=C\c1cccc2nccnc12` [Compound 297], the IC50 in assay [1] and in assay [2] (setting [3]) was 10 to 20 µM each time.
Consider `O=C(O)c1ccc(N2N=C(c3ccoc3)/C(=C/c3ccc4[nH]ccc4c3)C2=O)cc1` [Compound 477], for which the IC50 in assay [1] was under 40 µM; in assay [2] (setting [3]) it was under 10 µM.
In the same order, the values of `O=C(O)c1ccc(N2N=C(C3CC3)/C(=C/c3ccc(-n4cccn4)cc3)C2=O)cc1` [Compound 322] are 10 to 20 µM and under 10 µM.
As for `Cn1cc(-c2ccc(/C=C3\C(=O)N(c4ccc(C(=O)O)cc4)N=C3Cc3ccccc3)o2)cn1` [Compound 518], the IC50 in assay [1] and in assay [2] (setting [3]) was 10 to 20 µM throughout.
Take `O=C(O)c1ccc(N2N=C(c3ccoc3)/C(=C/c3ccc(CO)o3)C2=O)cc1` [Compound 247]: the IC50 in assay [1] was under 40 µM; in assay [2] (setting [3]), under 10 µM.
Regarding `COc1cc(/C=C2\C(=O)N(c3ccccc3)N=C2C)ccc1OCC(=O)OC(C)(C)C` [Compound 125], the figures for the IC50 in assay [1] and in assay [2] (setting [3]) were under 40 µM and 10 to 20 µM, respectively.
In the same order, the values of `CC1=NN(c2ccc(C(=O)O)cc2)C(=O)/C1=C\c1ccc2c(ccn2CC2CCCCC2)c1` [Compound 498] are under 40 µM and under 10 µM.
In the same order, the values of `CC1=NN(c2cccc(S(N)(=O)=O)c2)C(=O)/C1=C\c1cc2ccccc2o1` [Compound 164] are under 10 µM and under 10 µM.
In the same order, the values of `COCC1=NN(c2ccc(C(=O)O)cc2)C(=O)/C1=C\c1nccs1` [Compound 237] are under 40 µM and 10 to 20 µM.
Turning to `CCOC(=O)c1ccc(COc2ccc(/C=C3\C(=O)N(c4ccc(S(N)(=O)=O)cc4)N=C3C)cc2OC)o1` [Compound 154], the IC50 in assay [1] and in assay [2] (setting [3]) was under 10 µM throughout.
Consider `O=C(O)c1ccc(N2N=C(C3CC3)/C(=C/c3ccc4c(c3)OCCO4)C2=O)cc1` [Compound 319], for which the IC50 in assay [1] and in assay [2] (setting [3]) was under 10 µM in each case.
In the case of `CCCCC1=NN(c2ccccc2)C(=O)/C1=C\c1ccc(CO)o1` [Compound 56], the IC50 in assay [1] and in assay [2] (setting [3]) was 10 to 20 µM throughout.
Turning to `COCC1=NN(c2ccccc2)C(=O)/C1=C\c1ccc2ccccc2c1` [Compound 2], the IC50 in assay [1] and in assay [2] (setting [3]) was 10 to 20 µM throughout.
Consider `CC1=NN(c2cccc(C(=O)N3CCOCC3)c2)C(=O)/C1=C\c1ccc2c(c1)OCCO2` [Compound 411], for which the results for the IC50 in assay [1] and in assay [2] (setting [3]) were under 40 µM and under 10 µM, respectively.
For the molecule `COC(=O)N1CCN(c2ccc(C=C3C(=O)N(c4ccc(C(=O)O)cc4)N=C3C3CC3)cc2)CC1` [Compound 315], the IC50 in assay [1] and in assay [2] was under 10 µM each time.
On to `COCC1=NN(c2ccc(C(=O)O)cc2)C(=O)/C1=C\c1ccc(CO)o1` [Compound 328], for which the IC50 in assay [1] and in assay [2] (setting [3]) was under 10 µM throughout.
For `CCCCC1=NN(c2ccc(C(=O)O)cc2)C(=O)C1=Cc1ccc(O)c(OC)c1` [Compound 295], the IC50 in assay [1] and in assay [2] was 10 to 20 µM in each case.
Regarding `CCCCC1=NN(c2ccc(C(=O)O)cc2)C(=O)/C1=C\c1ccc(OCc2ccccc2)c(OC)c1` [Compound 296], the IC50 is under 40 µM in assay [1] and under 10 µM in assay [2] (setting [3]).
For `CC1=NN(c2ccc(C(=O)O)cc2)C(=O)/C1=C\c1ccc(Oc2ccccc2)cc1` [Compound 539], the IC50 in assay [1] and in assay [2] (setting [3]) was under 10 µM each time.
As to `CC1=NN(c2ccc(S(N)(=O)=O)cc2)C(=O)/C1=C\c1cc2ccccc2o1` [Compound 168], the IC50 was 10 to 20 µM in assay [1] and under 10 µM in assay [2] (setting [3]).
In the same order, the values of `O=C(O)c1ccc(N2N=C(c3ccoc3)/C(=C/c3ccc(-n4ccnc4)cc3)C2=O)cc1` [Compound 250] are under 40 µM and under 10 µM.
As for `COc1ccc(C2=NN(c3ccc(C(=O)O)cc3)C(=O)C2=Cc2ccc3ccccc3c2)cc1OC` [Compound 333], the IC50 in assay [1] and in assay [2] was 10 to 20 µM throughout.
On to `CC1=NN(c2ccc(C(=O)N3CCC(CO)CC3)cc2)C(=O)/C1=C\c1ccc2c(c1)OCCO2` [Compound 387], for which the values for the IC50 in assay [1] and in assay [2] (setting [3]) were under 40 µM and 10 to 20 µM, respectively.
In the same order, the values of `CC1=NN(c2ccc(C(=O)N3CCC(O)C3)cc2)C(=O)/C1=C\c1ccc2c(c1)OCCO2` (centres unmarked) [Compound 413] are 10 to 20 µM and under 10 µM.
In the same order, the values of `COc1cc(/C=C2\C(=O)N(c3ccc(S(N)(=O)=O)cc3)N=C2C)ccc1OCC(=O)OC(C)(C)C` [Compound 121] are 10 to 20 µM and 10 to 20 µM.
In the same order, the values of `CCCCC1=NN(c2ccc(C(=O)O)cc2)C(=O)/C1=C\c1ccc(N2CCN(C(=O)OC)CC2)cc1` [Compound 298] are 10 to 20 µM and under 10 µM.
As to `CCCCC1=NN(c2cccc(C(=O)O)c2)C(=O)/C1=C\c1ccc2[nH]ccc2c1` [Compound 481], the IC50 in assay [1] is under 40 µM; in assay [2] (setting [3]), under 10 µM.
As to `COc1ccccc1-c1ccc(/C=C2\C(=O)N(c3cccc(C(=O)O)c3)N=C2c2ccoc2)o1` [Compound 485], the IC50 in assay [1] was under 40 µM; in assay [2] (setting [3]), under 10 µM.
In the same order, the values of `COCCC1=NN(c2ccc(C(=O)O)cc2)C(=O)/C1=C\c1ccc(-c2cnn(C)c2)o1` [Compound 512] are under 40 µM and 10 to 20 µM.
In the same order, the values of `CC1=NN(c2ccc(C(=O)N(C)CCO)cc2)C(=O)/C1=C\c1ccc2c(c1)OCCO2` [Compound 412] are 10 to 20 µM and 10 to 20 µM.
With `CC1=NN(c2ccc(S(N)(=O)=O)cc2)C(=O)C1=Cc1ccc(O)cc1` [Compound 218], the IC50 in assay [1] was under 40 µM; in assay [2] (setting [3]) it was 10 to 20 µM.
